# Assay results: patent US6638973B2, “Taxane formulations” (FSU Research Foundation, Inc., priority 2000, dated 2003)
# Tested on: HCT116 cells
# Experiment: In vitro cytotoxicity measured by the cell colony formation assay
# Assay type: cell-based
# Details: HCT116 cells, 72 h drug incubation, colonies counted after 7 days; ID50 = drug concentration producing 50% inhibition of colony formation; read-out: IN VITRO ID 50 (nm) HCT116
# Outline: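 Colony-forming survival was scored 7 days after a 72 h, 37 °C compound exposure followed by washout into fresh medium.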
row,SMILES,IC50
1,C/C=C/C(=O)N[C@@H](c1ccco1)[C@@H](O)C(=O)O[C@H]1C[C@@]2(O)[C@@H](OC(=O)c3ccccc3)C3[C@](C)(C(=O)[C@H](O)C(=C1C)C2(C)C)[C@@H](OC(=O)NC1CCCCC1)C[C@H]1OC[C@@]31OC(C)=O (stereo partly shown) [Compound 5895],< 1 nM

# Same assay, conditions: HCT116 cells, 72 h incubation with drug, colonies counted after 7 days; ID50 = drug concentration producing 50% inhibition of colony formation; read-out: IN VITRO ID 50 (nm) HCT116
row,SMILES,IC50
1,CCOC(=O)O[C@H]1C[C@H]2OC[C@@]2(OC(C)=O)C2[C@H](OC(=O)c3ccccc3)[C@]3(O)C[C@H](OC(=O)[C@H](O)[C@@H](NC(=O)C=C(C)C)c4ccco4)C(C)=C([C@@H](O)C(=O)[C@@]21C)C3(C)C (stereo partly shown) [Compound 6151],< 1 nM
2,CCC(C)(C)OC(=O)N[C@@H](c1ccco1)[C@@H](O)C(=O)O[C@H]1C[C@@]2(O)[C@@H](OC(=O)c3ccccc3)C3[C@](C)(C(=O)[C@H](O)C(=C1C)C2(C)C)[C@@H](OC(=O)OCc1ccccc1)C[C@H]1OC[C@@]31OC(C)=O (stereo partly shown) [Compound 6246],< 1 nM

# Same assay, conditions: HCT116 cells, colony formation, 72 h incubation with drug, colonies counted after 7 days; ID50 = drug concentration producing 50% inhibition of colony formation; read-out: IN VITRO ID 50 (nm) HCT116
row,SMILES,IC50
1,C/C=C/C(=O)N[C@@H](c1ccco1)[C@@H](O)C(=O)O[C@H]1C[C@@]2(O)[C@@H](OC(=O)c3ccccc3)C3[C@](C)(C(=O)[C@H](OC(=O)Nc4ccc(F)c(F)c4)C(=C1C)C2(C)C)[C@@H](O)C[C@H]1OC[C@@]31OC(C)=O (stereo partly shown) [Compound 6015],< 10 nM
2,C/C=C/C(=O)N[C@@H](c1ccco1)[C@@H](O)C(=O)O[C@H]1C[C@@]2(O)[C@@H](OC(=O)c3ccccc3)C3[C@](C)(C(=O)[C@H](OC(=O)Nc4ccccc4)C(=C1C)C2(C)C)[C@@H](O)C[C@H]1OC[C@@]31OC(C)=O (stereo partly shown) [Compound 6024],< 1 nM
3,C/C=C/C(=O)N[C@@H](c1ccco1)[C@@H](O)C(=O)O[C@H]1C[C@@]2(O)[C@@H](OC(=O)c3ccccc3)C3[C@](C)(C(=O)[C@H](OC(=O)NCC)C(=C1C)C2(C)C)[C@@H](O)C[C@H]1OC[C@@]31OC(C)=O (stereo partly shown) [Compound 6072],< 1 nM

# Same assay, conditions: HCT116 colony formation; 72 h drug incubation, colonies counted after 7 days; Example 5, C-7 ester/C-10 hydroxy taxanes; read-out: IN VITRO ID 50 (nm) HCT116
row,SMILES,IC50
1,CC(=O)O[C@@]12CO[C@@H]1C[C@H](OC(=O)C(C)C)[C@@]1(C)C(=O)[C@H](O)C3=C(C)[C@@H](OC(=O)[C@H](O)[C@@H](NC(=O)OC=C(C)C)c4ccco4)C[C@@](O)([C@@H](OC(=O)c4ccccc4)C12)C3(C)C (stereo partly shown) [Compound 5989],< 10 nM
2,CC(=O)O[C@@]12CO[C@@H]1C[C@H](OC(=O)C=C(C)C)[C@@]1(C)C(=O)[C@H](O)C3=C(C)[C@@H](OC(=O)[C@H](O)[C@@H](NC(=O)OCC(C)C)c4ccco4)C[C@@](O)([C@@H](OC(=O)c4ccccc4)C12)C3(C)C (stereo partly shown) [Compound 6040],< 10 nM
3,CC(=O)O[C@@]12CO[C@@H]1C[C@H](OC(=O)C(C)C)[C@@]1(C)C(=O)[C@H](O)C3=C(C)[C@@H](OC(=O)[C@H](O)[C@@H](NC(=O)C(C)C)c4ccco4)C[C@@](O)([C@@H](OC(=O)c4ccccc4)C12)C3(C)C (stereo partly shown) [Compound 6121],< 10 nM
4,CC(=O)O[C@@]12CO[C@@H]1C[C@H](OC(=O)CC(C)C)[C@@]1(C)C(=O)[C@H](O)C3=C(C)[C@@H](OC(=O)[C@H](O)[C@@H](NC(=O)OC=C(C)C)c4ccco4)C[C@@](O)([C@@H](OC(=O)c4ccccc4)C12)C3(C)C (stereo partly shown) [Compound 6131],< 1 nM
5,CCCCC(=O)O[C@H]1C[C@H]2OC[C@@]2(OC(C)=O)C2[C@H](OC(=O)c3ccccc3)[C@]3(O)C[C@H](OC(=O)[C@H](O)[C@@H](NC(=O)OC=C(C)C)c4ccco4)C(C)=C([C@@H](O)C(=O)[C@@]21C)C3(C)C (stereo partly shown) [Compound 6141],< 1 nM
6,CCC(=O)O[C@H]1C[C@H]2OC[C@@]2(OC(C)=O)C2[C@H](OC(=O)c3ccccc3)[C@]3(O)C[C@H](OC(=O)[C@H](O)[C@@H](NC(=O)OC=C(C)C)c4ccco4)C(C)=C([C@@H](O)C(=O)[C@@]21C)C3(C)C (stereo partly shown) [Compound 6171],< 10 nM
7,CCCC(=O)O[C@H]1C[C@H]2OC[C@@]2(OC(C)=O)C2[C@H](OC(=O)c3ccccc3)[C@]3(O)C[C@H](OC(=O)[C@H](O)[C@@H](NC(=O)OC=C(C)C)c4ccco4)C(C)=C([C@@H](O)C(=O)[C@@]21C)C3(C)C (stereo partly shown) [Compound 6181],< 1 nM
8,C/C=C/C(=O)N[C@@H](c1ccco1)[C@@H](O)C(=O)O[C@H]1C[C@@]2(O)[C@@H](OC(=O)c3ccccc3)C3[C@](C)(C(=O)[C@H](O)C(=C1C)C2(C)C)[C@@H](OC(=O)C(C)C)C[C@H]1OC[C@@]31OC(C)=O (stereo partly shown) [Compound 6202],< 1 nM
9,CCC(=O)O[C@H]1C[C@H]2OC[C@@]2(OC(C)=O)C2[C@H](OC(=O)c3ccccc3)[C@]3(O)C[C@H](OC(=O)[C@H](O)[C@@H](NC(=O)OC(C)(C)CC)c4ccco4)C(C)=C([C@@H](O)C(=O)[C@@]21C)C3(C)C (stereo partly shown) [Compound 6212],< 1 nM
10,CCC(C)(C)OC(=O)N[C@@H](c1ccco1)[C@@H](O)C(=O)O[C@H]1C[C@@]2(O)[C@@H](OC(=O)c3ccccc3)C3[C@](C)(C(=O)[C@H](O)C(=C1C)C2(C)C)[C@@H](OC(=O)C(C)C)C[C@H]1OC[C@@]31OC(C)=O (stereo partly shown) [Compound 6252],< 1 nM
11,CCCC(=O)O[C@H]1C[C@H]2OC[C@@]2(OC(C)=O)C2[C@H](OC(=O)c3ccccc3)[C@]3(O)C[C@H](OC(=O)[C@H](O)[C@@H](NC(=O)OC(C)(C)CC)c4ccco4)C(C)=C([C@@H](O)C(=O)[C@@]21C)C3(C)C (stereo partly shown) [Compound 6272],< 1 nM
12,CCC(C)(C)OC(=O)N[C@@H](c1ccco1)[C@@H](O)C(=O)O[C@H]1C[C@@]2(O)[C@@H](OC(=O)c3ccccc3)C3[C@](C)(C(=O)[C@H](O)C(=C1C)C2(C)C)[C@@H](OC(=O)CC(C)C)C[C@H]1OC[C@@]31OC(C)=O (stereo partly shown) [Compound 6282],< 10 nM
13,CC(=O)O[C@@]12CO[C@@H]1C[C@H](OC(=O)C(C)C)[C@@]1(C)C(=O)[C@H](O)C3=C(C)[C@@H](OC(=O)[C@H](O)[C@@H](NC(=O)OC(C)(C)C)c4cccs4)C[C@@](O)([C@@H](OC(=O)c4ccccc4)C12)C3(C)C (stereo partly shown) [Compound 6333],< 1 nM
14,CCCCC(=O)O[C@H]1C[C@H]2OC[C@@]2(OC(C)=O)C2[C@H](OC(=O)c3ccccc3)[C@]3(O)C[C@H](OC(=O)[C@H](O)[C@@H](NC(=O)OC(C)(C)CC)c4ccco4)C(C)=C([C@@H](O)C(=O)[C@@]21C)C3(C)C (stereo partly shown) [Compound 6343],< 10 nM

# Same assay, conditions: HCT116 colony formation; 72 h drug incubation, colonies counted after 7 days; Example 15, C-7 substituted acetate/C-10 hydroxy taxanes; read-out: IN VITRO ID 50 (nm) HCT116
row,SMILES,IC50
1,C/C=C/C(=O)N[C@@H](c1ccco1)[C@@H](O)C(=O)O[C@H]1C[C@@]2(O)[C@@H](OC(=O)c3ccccc3)C3[C@](C)(C(=O)[C@H](O)C(=C1C)C2(C)C)[C@@H](OC(=O)COC)C[C@H]1OC[C@@]31OC(C)=O (stereo partly shown) [Compound 5835],< 1 nM
2,"CCC(C)(C)OC(=O)NC(c1ccco1)C(O)C(=O)OC1CC2(O)C(OC(=O)c3ccccc3)C3C4(OC(C)=O)COC4CC(OC(=O)COC)C3(C)C(=O)C(O)C(=C1C)C2(C)C (stereo not shown) [Compound 6226, N-Debenzoyl-N-tert-amyloxycarbonyl-3′-desphenyl-3′-(2-furyl)-10-deacetyl-7-methoxyacetyl taxol]",< 1 nM
3,COCC(=O)O[C@H]1C[C@H]2OC[C@@]2(OC(C)=O)C2[C@H](OC(=O)c3ccccc3)[C@]3(O)C[C@H](OC(=O)[C@H](O)[C@@H](NC(=O)OC(C)(C)C)c4ccco4)C(C)=C([C@@H](O)C(=O)[C@@]21C)C3(C)C (stereo partly shown) [Compound 6326],< 1 nM

# Same assay, conditions: HCT116 colony formation; 72 h drug incubation, colonies counted after 7 days; Example 20, C-10 substituted acetate/C-7 hydroxy taxanes; read-out: IN VITRO ID 50 (nm) HCT116
row,SMILES,IC50
1,C/C=C/C(=O)N[C@@H](c1ccco1)[C@@H](O)C(=O)O[C@H]1C[C@@]2(O)[C@@H](OC(=O)c3ccccc3)C3[C@](C)(C(=O)[C@H](OC(=O)COC)C(=C1C)C2(C)C)[C@@H](O)C[C@H]1OC[C@@]31OC(C)=O (stereo partly shown) [Compound 6066],< 1 nM
2,C/C=C/C(=O)N[C@@H](c1ccco1)[C@@H](O)C(=O)O[C@H]1C[C@@]2(O)[C@@H](OC(=O)c3ccccc3)C3[C@](C)(C(=O)[C@H](OC(=O)COc4ccccc4)C(=C1C)C2(C)C)[C@@H](O)C[C@H]1OC[C@@]31OC(C)=O (stereo partly shown) [Compound 6111],< 1 nM
